Laboratory results as given in patent US11109593B2, “Isoxazolin-5-one derivative and herbicide containing same as active ingredient” (HOKKO CHEMICAL INDUSTRY CO., LTD., priority 2017, dated 2021).

What was measured:
Assay type in all cases: in vivo
Scirpus juncoides [1] = test: Test Example 1: herbicidal effect test by treatment of rice paddy soil (immediately after seeding); settings: 120 g/10a active ingredient, dry weight vs untreated area, 14 days after treatment
Outline: (§1)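 Puddled, fertilized (N:P:K=17:17:17) paddy soil in Wagner pots; seeds sown 0–1 cm deep, flooded to about 3 cm. Emulsifiable formulations diluted in water and dropped into the water immediately after seeding at 120 g active ingredient per 10 ares; greenhouse. Herbicidal rate from dry weight vs untreated at 14 days.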

[2] = system: broad leaf weeds (Lindernia pyxidaria and Monochoria vaginalis); test: as above; settings: 120 g/10a active ingredient, dry weight vs untreated area, 14 days after treatment; for pest or weed control at 1200 g/ha: 336 h
Outline: as §1

Echinochloa crus-galli [3] = test: as above; settings: 120 g/10a active ingredient, dry weight vs untreated area, 14 days after treatment
Outline: as §1

Chenopodium album [4] = test: Test Example 3: herbicidal effect test by treatment of dry field farming soil (one day after seeding); settings: 120 g/10a active ingredient, evaluated 14 days after treatment
Outline: (§2)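 Compound emulsions are sprayed on the soil surface one day after sowing (120 g a.i. per 10 ares) before weeds emerge. Effect is expressed as percent dry-weight reduction versus untreated controls 14 days post-treatment.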

Echinochloa crus-galli [5] = test: as above; settings: 120 g/10a active ingredient, evaluated 14 days after treatment
Outline: as §2

southern crabgrass [6] = test: as above; settings: 120 g/10a active ingredient, evaluated 14 days after treatment
Outline: as §2

Amaranthus viridis [7] = test: as above; settings: 120 g/10a active ingredient, evaluated 14 days after treatment
Outline: as §2

Scirpus juncoides [8] = test: Test Example 2: herbicidal effect test by treatment during growing period in paddy rice cultivation (seven days after seeding); settings: 120 g/10a active ingredient, assessed 14 days after treatment, dry weight vs untreated area
Outline: (§3)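 Greenhouse flooded-pot test, seeds sown in puddled paddy soil; emulsion applied into water 7 d after seeding, 120 g a.i./10 a. Dry-weight-based herbicidal rate at 14 d, n=2.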

[9] = system: broad leaf weeds (Lindernia pyxidaria and Monochoria vaginalis); test: as above; settings: 120 g/10a active ingredient, assessed 14 days after treatment, dry weight vs untreated area; for pest or weed control at 1200 g/ha: 336 h
Outline: as §3

Echinochloa crus-galli [10] = test: as above; settings: 120 g/10a active ingredient, assessed 14 days after treatment, dry weight vs untreated area
Outline: as §3

Chenopodium album [11] = test: Test Example 4: herbicidal effect test by treatment of leave and stem in dry field farming (seven days after seeding); settings: 120 g/10a active ingredient, emulsion sprayed seven days after seeding, evaluated 14 days after treatment
Outline: (§4)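 Twenty seeds per species were mixed into the top 1 cm of alluvial soil in 36 cm^2 pots; emulsions were sprayed seven days after seeding at 100 L per 10 ares (120 g active ingredient per 10 ares). Herbicidal rate (%) = {1 − treated/untreated mean dry weight} × 100, 14 days after treatment, duplicate.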

Echinochloa crus-galli [12] = test: as above; settings: 120 g/10a active ingredient, emulsion sprayed seven days after seeding, evaluated 14 days after treatment
Outline: as §4

southern crabgrass [13] = test: as above; settings: 120 g/10a active ingredient, emulsion sprayed seven days after seeding, evaluated 14 days after treatment
Outline: as §4

Amaranthus viridis [14] = test: as above; settings: 120 g/10a active ingredient, emulsion sprayed seven days after seeding, evaluated 14 days after treatment
Outline: as §4

Row | SMILES | Herbicidal rate (%) Scirpus juncoides (Scirpus juncoides [1]) | Herbicidal rate (%) Lindernia pyxidaria ([2]; Lindernia pyxidaria) | Herbicidal rate (%) Monochoria vaginalis ([2]; Monochoria vaginalis) | Herbicidal rate (%) Echinochloa crus-galli (Echinochloa crus-galli [3]) | herbicidal rate, Chenopodium album (Chenopodium album [4]) | herbicidal rate, Echinochloa crus-galli (Echinochloa crus-galli [5]) | herbicidal rate, southern crabgrass (southern crabgrass [6]) | herbicidal rate, Amaranthus viridis (Amaranthus viridis [7]) | Herbicidal rate (%) Scirpus juncoides (Scirpus juncoides [8]) | Herbicidal rate (%) Lindernia pyxidaria ([9]; Lindernia pyxidaria) | Herbicidal rate (%) Monochoria vaginalis ([9]; Monochoria vaginalis) | Herbicidal rate (%) Echinochloa crus-galli (Echinochloa crus-galli [10]) | herbicidal effect (herbicidal rate), Chenopodium album (Chenopodium album [11]) | herbicidal effect (herbicidal rate), Echinochloa crus-galli (Echinochloa crus-galli [12]) | herbicidal effect (herbicidal rate), southern crabgrass (southern crabgrass [13]) | herbicidal effect (herbicidal rate), Amaranthus viridis (Amaranthus viridis [14]) | other results
1 | CCC(C)n1oc(=O)c(Cc2ccccc2NS(=O)(=O)C(F)(F)F)c1C (centres unmarked) [Compound 1-102, 1,1,1-trifluoro-N-[2-[(3-methyl-5-oxo-2-sec-butyl-isoxazol-4-yl)methyl]phenyl]methanesulfonamide] | – | – | – | – | – | – | – | – | – | – | – | – | – | – | – | – | pest or weed control at 1200 g/ha (Scirpus juncoides [1]; in Schoenoplectiella juncoides, 336 h, read-out: Herbicidal rate (%) Scirpus juncoides): 100%; pest or weed control at 1200 g/ha ([2]; Monochoria vaginalis, read-out: Herbicidal rate (%) Monochoria vaginalis): 100%; pest or weed control at 1200 g/ha ([2]; in Lindernia, Lindernia pyxidaria, read-out: Herbicidal rate (%) Lindernia pyxidaria): 100%; pest or weed control at 1200 g/ha (Echinochloa crus-galli [3]; in Echinochloa crus-galli, 336 h, read-out: Herbicidal rate (%) Echinochloa crus-galli): 100%; pest or weed control at 1200 g/ha (Chenopodium album [4]; Chenopodium album, 336 h, read-out: herbicidal rate, Chenopodium album): 80%; pest or weed control at 1200 g/ha (Echinochloa crus-galli [5]; Echinochloa crus-galli, 336 h, read-out: herbicidal rate, Echinochloa crus-galli): 90%; pest or weed control at 1200 g/ha (southern crabgrass [6]; Digitaria ciliaris, 336 h, read-out: herbicidal rate, southern crabgrass): 90%; pest or weed control at 1200 g/ha (Amaranthus viridis [7]; Amaranthus viridis, 336 h, read-out: herbicidal rate, Amaranthus viridis): 80%; pest or weed control at 1200 g/ha (Scirpus juncoides [8]; Schoenoplectiella juncoides, 336 h, read-out: herbicidal rate (%) Scirpus juncoides): 90%; pest or weed control at 1200 g/ha ([9]; Lindernia pyxidaria, read-out: herbicidal rate (%) Lindernia pyxidaria): 60%; pest or weed control at 1200 g/ha ([9]; Monochoria vaginalis, read-out: herbicidal rate (%) Monochoria vaginalis): 90%; pest or weed control at 1200 g/ha (Echinochloa crus-galli [10]; Echinochloa crus-galli, 336 h, read-out: herbicidal rate (%) Echinochloa crus-galli): 90%; pest or weed control at 1200 g/ha (Chenopodium album [11]; Chenopodium album, 336 h, read-out: herbicidal effect (herbicidal rate), Chenopodium album): 0%; pest or weed control at 1200 g/ha (Echinochloa crus-galli [12]; Echinochloa crus-galli, 336 h, read-out: herbicidal effect (herbicidal rate), Echinochloa crus-galli): 90%; pest or weed control at 1200 g/ha (southern crabgrass [13]; Digitaria ciliaris, 336 h, read-out: herbicidal effect (herbicidal rate), southern crabgrass): 80%; pest or weed control at 1200 g/ha (Amaranthus viridis [14]; Amaranthus viridis, 336 h, read-out: herbicidal effect (herbicidal rate), Amaranthus viridis): 40%
2 | Cc1c(Cc2ccccc2N(S(=O)(=O)C(F)(F)F)S(=O)(=O)C(F)(F)F)c(=O)on1C1CCCCC1 [Compound 1-990] | 80% | 90% | 80% | 90% | 50% | 50% | 50% | 0% | 80% | 100% | 80% | 100% | 40% | 60% | 0% | 50% | –
3 | CCCCC(C)n1oc(=O)c(Cc2ccccc2N(S(=O)(=O)C(F)(F)F)S(=O)(=O)C(F)(F)F)c1C (centres unmarked) [Compound 1-977] | 90% | 100% | 100% | 100% | 50% | 80% | 80% | 70% | 90% | 80% | 90% | 100% | 80% | 90% | 80% | 60% | –
4 | C#CCn1oc(=O)c(Cc2ccccc2NS(=O)(=O)C(F)(F)F)c1C [Compound 1-138] | 90% | 100% | 100% | 90% | 0% | 90% | 90% | 0% | 80% | 80% | 80% | 90% | 0% | 80% | 80% | 40% | –
5 | C=CCOC(=O)N(c1ccccc1Cc1c(C)n(C(C)CC)oc1=O)S(=O)(=O)C(F)(F)F (centres unmarked) [Compound 1-706] | 90% | 90% | 90% | 90% | 90% | 90% | 90% | 90% | 90% | 90% | 90% | 90% | 40% | 90% | 90% | 40% | –
6 | CCCC(C)n1oc(=O)c(Cc2ccccc2N(S(C)(=O)=O)S(=O)(=O)C(F)(F)F)c1C (centres unmarked) [Compound 1-894] | 100% | 80% | 60% | 100% | 60% | 90% | 90% | 70% | 80% | 70% | 70% | 90% | 60% | 90% | 90% | 60% | –
7 | CCC(CC)n1oc(=O)c(Cc2ccccc2N(C(=O)CC(C)C)S(=O)(=O)C(F)(F)F)c1C [Compound 1-353] | 90% | 90% | 90% | 90% | 90% | 90% | 90% | 90% | 90% | 90% | 90% | 90% | 40% | 90% | 90% | 40% | –
8 | Cc1c(Cc2ccccc2N(S(C)(=O)=O)S(=O)(=O)C(F)(F)F)c(=O)on1C(C)C [Compound 1-888] | 90% | 100% | 90% | 100% | 60% | 90% | 70% | 40% | 90% | 80% | 100% | 90% | 40% | 80% | 40% | 40% | –
